Test results taken from patent US9090651B2, “Helix 12 directed pharmaceutical products” (ENDORECHERCHE, INC., priority 2004, dated 2015).
“And” between values parts separate entries of the source, which are not always exact repeats. Equal values may be shown once. Read-outs that look alike come from different tables or passages of the source.

How the values were obtained:
[1] = test system: Shionogi mouse mammary carcinoma cells; assay: Androgenic/antiandrogenic activity on DHT-stimulated Shionogi cell growth; type: cell-based; details: for Shionogi VS OH-FLU: ratio of Ki hydroxyflutamide versus tested compound
Human Androgen Receptor = target: T1, Human Androgen Receptor (Homo sapiens, UniProt P10275); assay: Androgen receptor binding assay (hydroxylapatite, [3H]R1881, cytosol of transfected HEK-293 cells); details: for Androgen Receptor Binding (%) Human RBA R1881 = 100: % RBA=100×IC50 R1881/IC50 compound, transfected cells; for RBA human: Table 4, relative to R1881
T1 sequence (P10275 1-920): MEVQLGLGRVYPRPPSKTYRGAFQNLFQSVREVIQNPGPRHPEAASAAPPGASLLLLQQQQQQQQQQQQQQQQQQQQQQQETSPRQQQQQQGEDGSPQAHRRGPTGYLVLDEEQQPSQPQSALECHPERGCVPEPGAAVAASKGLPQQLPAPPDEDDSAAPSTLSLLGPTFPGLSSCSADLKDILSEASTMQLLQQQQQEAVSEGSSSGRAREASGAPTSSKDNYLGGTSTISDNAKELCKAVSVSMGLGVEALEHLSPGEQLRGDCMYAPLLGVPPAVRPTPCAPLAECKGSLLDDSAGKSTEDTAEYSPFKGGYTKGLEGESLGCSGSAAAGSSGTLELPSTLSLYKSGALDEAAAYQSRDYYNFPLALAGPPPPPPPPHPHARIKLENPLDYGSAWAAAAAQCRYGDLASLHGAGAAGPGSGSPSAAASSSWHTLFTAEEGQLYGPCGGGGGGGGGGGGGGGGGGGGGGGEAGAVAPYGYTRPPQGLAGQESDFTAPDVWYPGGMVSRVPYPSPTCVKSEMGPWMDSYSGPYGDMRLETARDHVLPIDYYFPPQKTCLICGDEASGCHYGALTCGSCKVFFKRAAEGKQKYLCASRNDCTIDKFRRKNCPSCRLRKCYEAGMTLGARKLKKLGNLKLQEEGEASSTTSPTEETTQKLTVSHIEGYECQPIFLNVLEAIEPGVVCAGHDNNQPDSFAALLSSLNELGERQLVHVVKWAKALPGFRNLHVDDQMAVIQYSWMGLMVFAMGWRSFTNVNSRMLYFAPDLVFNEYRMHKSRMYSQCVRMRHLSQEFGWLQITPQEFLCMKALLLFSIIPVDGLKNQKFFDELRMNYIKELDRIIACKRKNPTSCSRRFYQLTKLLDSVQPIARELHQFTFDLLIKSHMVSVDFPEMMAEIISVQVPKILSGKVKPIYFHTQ

rat prostate = assay: Systemic antiandrogenic activity, orchidectomized immature male rats with DHT implant: prostate weight; type: in vivo; details: for inhibition in vivo at 0.5 mg: Rattus norvegicus, 168 h
Procedure: (§1) Immature male rats (Crl:CD(SD)Br) 22 to 24-day old were obtained from Charles-River, Inc. (St-Constant, Quebec, Canada) and housed up to 5 per cage in plastic bins in a temperature (23±1° C.)- and light (12 h light/day, lights on at 7 h15)-controlled environment. The rats were fed rodent chow and tap water ad libitum. The day following their arrival, the animals were orchidectomized (CX) under Isoflurane anesthesia via scrotal route and randomly assigned to groups of 5 animals.
(§2) Compounds were solubilized (when possible) in dimethylsulfoxide (DMSO, 10% final concentration) and administered as suspension in 0.4% methylcellulose. […] One group of animals received the antiandrogen Flutamide as reference. The animals were killed by cervical dislocation under isoflurane anesthesia on the 8th morning following castration. The ventral prostate and seminal vesicles were rapidly dissected and weighed.
(§3) W is the weight of the prostate or the seminal vesicle.

rat seminal vesicle = assay: Systemic antiandrogenic activity, orchidectomized immature male rats with DHT implant: seminal vesicle weight; type: in vivo; details: for inhibition in vivo at 0.5 mg: Rattus norvegicus, 168 h
Procedure: as §1, §2, §3

[2] = test system: sebaceous glands of the left ear; assay: Topical antiandrogenic activity, ear sebaceous glands model in the male hamster; type: in vivo; details: Mesocricetus auratus, 336 h, topical on left pinna, read-out: Antiandrogenic activity in Hamster Ear Area Inh Vs Cx (%); for inhibition in vivo at 0.1 mg: 100 μg daily for 14 days; for inhibition in vivo at 0.01 mg: 10 μg daily for 14 days
Procedure: The antiandrogenic activity of compounds for topical use was determined using the ear sebaceous glands model in the male hamster.
Male Golden Syrian Hamsters (SYR) of 110-120 g were obtained from Harlan Sprague-Dawley (Madison, USA) and housed up to 2 per plastic cage in a temperature (22±3° C.) and light (12 h light/day, lights on at 7 h15)-controlled environment. The hamsters were fed with Certified Rodent Diet 5002 (pellet) and had access to tap water ad libitum. The animals were acclimatized for at least five days prior to beginning the study. Animals were randomly assigned to groups of eight hamsters. One group of hamsters were castrated under isoflurane-induced anesthesia on the day of dosing initiation (SD 1) and used as control group.
To evaluate the antiandrogenic activity, the tested compounds were applied topically on the inner part of the left ear, once daily, for 14 days. […] For animals of the castrated and intact control groups, one ten-μL vehicle was applied onto the left ear. No solution was applied on the right ear.
On Study Day 15, the hamsters were euthanized by cervical dislocation under isoflurane anesthesia. The left and right ears were collected attached together by the head skin, flat fixed on a paper and then immersed in 10% neutral buffered formalin. Punctures making a circular hole of 6 mm were made on the flat fixed ear in the region where the solution has been applied. These punch-made specimens were collected from each ear. Using a scalpel blade, the collected 6 mm round ear specimens were cut in the middle between the two cartilage ridges. The two equal parts of the ear round specimens were embedded in paraffin. After processing the tissue, the two parts were vertically embedded parallel to each other in such a way that the flat 6 mm area was facing out. From each paraffin block, one section (5 μm thick) was cut and collected on a glass slide. Thus, each slide contained two elongated sections of 6 mm length. Slides were stained with hematoxylin and eosin.
Using the video camera and the lens number X5 of the light microscope, the resulting field appearing on the screen has a length of 0.953 mm. When the first 6 mm long section was examined from the left to the right, the first and second fields were ignored and the third and fourth fields were captured for analysis by the image analyzer. Each field has the length of 0.953 mm. With the help of the screen mouse, the sebaceous glands within the whole field length (0.953 mm) were marked. Also, an area having the length of the whole field and the height between stratum granulosum and the upper edge of the cartilage was drawn.
The total area of the sebaceous glands (μm^2) in each examined field was calculated by the Image Analyser. We also measured the total area, which has the length of 0.953 mm and the height between stratum granulosum and the cartilage. In addition, the percentage of the area occupied by the glands was obtained. Thus, for each ear, two sections were cut and two fields from each section were analyzed. The total of the four readings was averaged and the mean standard error of the mean was calculated by the image analyzer. The results were expressed in μm^2 as the total surface of glands per field and also as percentage of the area occupied by the glands in the tissue.

[3] = Mus musculus, read-out: Shionogi Antiandrogenic activity IC50 (nM), inhibition of DHT-stimulated Shionogi cell number
[4] = sc, read-out: IN VIVO Rat s.c. (+DHT) Prostate % inhibition, s.c., 0.5 mg/animal once daily for 7 days, +DHT
[5] = sc, read-out: IN VIVO Rat s.c. (+DHT) SV % inhibition, s.c., 0.5 mg/animal once daily for 7 days, +DHT
[6] = Mus musculus, read-out: Shionogi IC50 (nM), Table 4, inhibition of DHT-stimulated Shionogi cell number
[7] = read-out: Shionogi Antiandrogenic activity IC50, inhibition of DHT-stimulated Shionogi cell number
[8] = s.c., 0.5 mg/animal once daily for 7 days, +DHT

Row | SMILES | IC50 [1, 3] [nM] | Androgen Receptor Binding (%) Human RBA R1881 = 100 (Human Androgen Receptor) | inhibition in vivo at 0.5 mg (rat prostate; [4]) [%] | inhibition in vivo at 0.5 mg (rat seminal vesicle; [5]) [%] | IC50 [1, 6] [nM] | RBA human (Human Androgen Receptor) [%] | further results
1 | CCCC(NC(CC)CC)c1cccc(OCC[C@]23CCC4C5CCC(=O)C=C5C[C@@H](C)C4C2CC[C@@H]3O)c1 (mixture of isomers) [EM-7128] | 0.75 | 120% | 41 | 2 |  |  | 
2 | CCCC(NC(CC)CC)c1cccc(OCC[C@]23CCC4C5CCC(=O)C=C5C[C@@H](C)C4C2CC[C@]3(C)O)c1 (mixture of isomers) [EM-7129] | 0.96 | 197% | 37 | 10 |  |  | 
3 | CCCC(NC(C)C)c1cccc(OCC[C@]23CCC4C(CCC5=CC(=O)CC[C@@]54C)C2CC[C@]3(C)O)c1 (mixture of isomers) [EM-7133] | 1.1 | 55% | 32 | 40 |  |  | 
4 | CCC[C@H](NC(CC)CC)c1cccc(OCC[C@]23CCC4C(CCC5CC(=O)CC[C@@]54C)C2CC[C@@H]3O)c1 (stereo in doubt) [EM-6445] | 0.2 | 168% |  |  | 0.2 | 336 | Shionogi VS OH-FLU ([1]; Table 4): 231; inhibition in vivo at 0.5 mg (rat prostate; po, 0.5 mg, per os, read-out: Prostate Rat Inh % inh (0.5 mg, per os)): 3%; inhibition in vivo at 0.5 mg (rat seminal vesicle; po, 0.5 mg, per os, read-out: SV RAT Inh % inh (0.5 mg, per os)): 0%; inhibition in vivo at 0.1 mg [2]: 96%
5 | CCC(CC)NC(CC)c1cccc(OCC[C@]23CCC4C(CCC5CC(=O)CC[C@@]54C)C2CC[C@@H]3O)c1 (some centres unmarked) [EM-6339] | 2.3 | 240% and 236% |  |  | 2.3 | 236 | IC50 [1, 7]: 3 nM; IC50 ([1]; read-out: Shionogi IC50, Table 4, inhibition of DHT-stimulated Shionogi cell number): 3 nM; inhibition in vivo at 0.01 mg [2]: 55%; inhibition in vivo at 0.1 mg [2]: 67%
6 | CC(NC1CCCCC1)c1cccc(OCC[C@]23CCC4C(CCC5C/C(=N\O)CC[C@@]54C)C2CC[C@@H]3O)c1 (some centres unmarked) [EM-6418] | 5 | 31% | 21 | 13 |  |  | IN VIVO Rat (+DHT) Prostate % inhibition (per os) (rat prostate; per os, +DHT): 16%; IN VIVO Rat (+DHT) SV % inhibition (per os) (rat seminal vesicle; per os, +DHT): 32%
7 | CCC[C@H](NC1CCCCC1)c1cccc(OCC[C@]23CCC4C(CCC5CC(=O)CC[C@@]54C)C2CCC3=O)c1 (some centres unmarked) [EM-6736] |  |  |  |  | 1.8 | 154 | Shionogi VS OH-FLU ([1]; Table 4): 43; inhibition in vivo at 0.01 mg [2]: 49.5%
8 | CC(C)CNC(C)(C)c1cccc(OCC[C@]23CCC4C(CCC5CC(=O)CC[C@@]54C)C2CCC3=O)c1 (some centres unmarked) [EM-6741] |  |  |  |  | 0.6 | 230 | Shionogi VS OH-FLU ([1]; Table 4): 153; inhibition in vivo at 0.01 mg [2]: 51.7%
9 | CCC(NC1CCCC1)c1cc(F)cc(OCC[C@]23CCC4C(CCC5CC(=O)CC[C@@]54C)C2CC[C@@H]3O)c1 (some centres unmarked) [EM-6761] | 1.2 | 141% | 33 | 0 |  |  | 
10 | CCCC(NC(CC)CC)c1cccc(OCC[C@]23CCC4C(CCC5=CC(=O)CC[C@@]54C)C2CC[C@@H]3O)c1 (some centres unmarked) [EM-6841] |  | 139% |  |  |  |  | IC50 [1, 7]: 0.1 nM; IN VIVO Rat s.c. (+DHT) Prostate % inhibition (rat prostate; [8]): 21%; IN VIVO Rat s.c. (+DHT) SV % inhibition (rat seminal vesicle; [8]): 5%
11 | CCC(CC)N(C)C(CC)c1cccc(OCC[C@]23CCC4C5CCC(=O)C=C5CCC4C2CC[C@]3(C)O)c1 (some centres unmarked) [EM-6902] | 0.06 | 107% | 2 | 0 |  |  | 
12 | CCC(CC)NC(CN(C)C)c1cccc(OCC[C@]23CCC4C(CCC5CC(=O)CC[C@@]54C)C2CC[C@@H]3O)c1 (some centres unmarked) [EM-7118] | 7.2 | 176% | 31 | 0 |  |  | 
13 | CCC(CC)NC(CC)c1cc(OCC[C@]23CCC4C(CCC5=CC(=O)CC[C@@]54C)C2CC[C@@H]3O)ccn1 (some centres unmarked) [EM-7136] | 0.2 | 92.7% and 93% | 27 | 35 |  |  | 
